# According to patent US10934310B2, “Inhibitors of Bruton's tyrosine kinase and method of their use” (JANSSEN PHARMACEUTICA NV, priority 2015, dated 2021):
# Biological target: unphosphorylated-BTK kinase domain (UP-BTK), GST-tagged human BTK (389-659aa) (Homo sapiens (Human), UniProt Q06187)
# Assay: BTK Kinase Lanthascreen Binding Assay
# Details: compound, 50 nM Tracer 236, 2 nM anti-GST antibody, 60 minutes; pIC50 = negative log of the IC50 in molar
# Protocol: BTK Kinase Lanthascreen Binding Assay:
# A BTK kinase lanthascreen binding assay monitors compound binding to unphosphorylated-BTK kinase domain (UP-BTK), by competing with a fluorescent labeled tracer. […] Data were analyzed using Xlfit™ version 5.3 from ID Business Solutions (Guildford), Microsoft Excel add-in. pIC50 refers to the negative log of the IC50 in molar.
# Chain of unphosphorylated-BTK kinase domain (UP-BTK), GST-tagged human BTK (389-659aa) (Q06187 389-659): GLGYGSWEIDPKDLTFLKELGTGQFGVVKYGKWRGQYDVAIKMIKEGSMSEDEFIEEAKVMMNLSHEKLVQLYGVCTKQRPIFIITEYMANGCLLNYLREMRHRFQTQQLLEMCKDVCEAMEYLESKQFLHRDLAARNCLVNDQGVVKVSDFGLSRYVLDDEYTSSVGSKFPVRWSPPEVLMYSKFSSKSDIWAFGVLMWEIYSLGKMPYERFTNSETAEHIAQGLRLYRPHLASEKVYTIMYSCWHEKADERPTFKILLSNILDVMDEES
row,BTK_I_binding pIC50,Structure (SMILES)
1,7.38,"Cc1cc(Oc2ccccc2)ccc1N1C(=O)Nc2c(C(=O)N[C@H]3CC[C@@H](NC(=O)CN(C)C)C3)sc3nccc1c23 [Example 71, N-((1S,3R)-3-(2-(Dimethylamino)acetamido)cyclopentyl)-5-(2-methyl-4-phenoxyphenyl)-4-oxo-4,5-dihydro-3H-1-thia-3,5,8-triazaacenaphthylene-2-carboxamide]"
2,7.02,"CNCC(=O)N[C@@H]1CC[C@H](NC(=O)c2sc3nccc4c3c2NC(=O)N4c2ccc(Oc3ccccc3)cc2C)C1 [Example 72, 5-(2-Methyl-4-phenoxyphenyl)-N-((1S,3R)-3-(2-(methylamino)acetamido)cyclopentyl)-4-oxo-4,5-dihydro-3H-1-thia-3,5,8-triazaacenaphthylene-2-carboxamide]"
3,7.00,"Cc1cc(Oc2ccccc2)ccc1N1C(=O)Nc2c(C(=O)N[C@H]3CC[C@@H](N(C)C)C3)sc3nccc1c23 [Example 73, N-((1S,3R)-3-(Dimethylamino)cyclopentyl)-5-(2-methyl-4-phenoxyphenyl)-4-oxo-4,5-dihydro-3H-1-thia-3,5,8-triazaacenaphthylene-2-carboxamide]"
4,7.07,"Cc1cc(Oc2ccccc2)ccc1N1C(=O)Nc2c(C(=O)N[C@H]3CC[C@@H](O)C3)sc3nccc1c23 [Example 74, N-((1S,3R)-3-Hydroxycyclopentyl)-5-(2-methyl-4-phenoxyphenyl)-4-oxo-4,5-dihydro-3H-1-thia-3,5,8-triazaacenaphthylene-2-carboxamide]"
5,7.30,"Cc1cc(Oc2ccccc2)ccc1N1C(=O)Nc2c(C(=O)N[C@H]3CC[C@@H](NC(=O)CN)C3)sc3nccc1c23 [Example 75, N-((1S,3R)-3-(2-Aminoacetamido)cyclopentyl)-5-(2-methyl-4-phenoxyphenyl)-4-oxo-4,5-dihydro-3H-1-thia-3,5,8-triazaacenaphthylene-2-carboxamide]"
6,6.88,"Cc1cc(Oc2ccccc2)ccc1N1C(=O)Nc2c(C(=O)N[C@H]3CC[C@@H](N)C3)sc3nccc1c23 [Example 76, N-((1S,3R)-3-Aminocyclopentyl)-5-(2-methyl-4-phenoxyphenyl)-4-oxo-4,5-dihydro-3H-1-thia-3,5,8-triazaacenaphthylene-2-carboxamide]"
7,6.61,"Cc1cc(Oc2ccccc2)ccc1N1C(=O)Nc2c(C(=O)N[C@H]3CC[C@@H](NC(=O)/C=C/CN(C)C)CC3)sc3nccc1c23 [Example 77, N-((1S,4S)-4-((E)-4-(Dimethylamino)but-2-enamido)cyclohexyl)-5-(2-methyl-4-phenoxyphenyl)-4-oxo-4,5-dihydro-3H-1-thia-3,5,8-triazaacenaphthylene-2-carboxamide]"
8,6.55,"CNC/C=C/C(=O)N[C@H]1CC[C@@H](NC(=O)c2sc3nccc4c3c2NC(=O)N4c2ccc(Oc3ccccc3)cc2C)CC1 [Example 78, 5-(2-Methyl-4-phenoxyphenyl)-N-((1S,4S)-4-((E)-4-(methylamino)but-2-enamido)cyclohexyl)-4-oxo-4,5-dihydro-3H-1-thia-3,5,8-triazaacenaphthylene-2-carboxamide]"
9,6.47,"Cc1cc(Oc2ccccc2)ccc1N1C(=O)Nc2c(C(=O)N[C@H]3CC[C@@H](NC(=O)/C=C/CN)CC3)sc3nccc1c23 [Example 79, N-((1S,4S)-4-((E)-4-Aminobut-2-enamido)cyclohexyl)-5-(2-methyl-4-phenoxyphenyl)-4-oxo-4,5-dihydro-3H-1-thia-3,5,8-triazaacenaphthylene-2-carboxamide]"

# The next lines start with the compound.
row,Structure (SMILES),BTK_I_binding pIC50
1,"Cc1cc(Oc2ccccc2)ccc1N1C(=O)Nc2c(C(=O)N[C@H]3CCC[C@H]3N(C)C)sc3nccc1c23 [Example 51, N-((1S,2R)-2-(Dimethylamino)cyclopentyl)-5-(2-methyl-4-phenoxyphenyl)-4-oxo-4,5-dihydro-3H-1-thia-3,5,8-triazaacenaphthylene-2-carboxamide]",6.01
2,"CCC(=O)N[C@@H]1CCCC[C@H]1NC(=O)c1sc2nccc3c2c1NC(=O)N3c1ccc(Oc2ccccc2)cc1C [Example 52, 5-(2-Methyl-4-phenoxyphenyl)-4-oxo-N-((1R,2R)-2-propionamidocyclohexyl)-4,5-dihydro-3H-1-thia-3,5,8-triazaacenaphthylene-2-carboxamide]",6.01
3,"Cc1cc(Oc2ccccc2)ccc1N1C(=O)Nc2c(C(=O)N[C@H]3CCC[C@H]3N)sc3nccc1c23 [Example 53, N-((1S,2R)-2-Aminocyclopentyl)-5-(2-methyl-4-phenoxyphenyl)-4-oxo-4,5-dihydro-3H-1-thia-3,5,8-triazaacenaphthylene-2-carboxamide]",5.95
4,"Cc1cc(Oc2ccccc2)ccc1N1C(=O)Nc2c(C(=O)N[C@H]3CCCC[C@@H]3NC=O)sc3nccc1c23 [Example 54, N-((1S,2S)-2-Formamidocyclohexyl)-5-(2-methyl-4-phenoxyphenyl)-4-oxo-4,5-dihydro-3H-1-thia-3,5,8-triazaacenaphthylene-2-carboxamide]",5.90
5,"CC(=O)N[C@H]1CCCC[C@@H]1NC(=O)c1sc2nccc3c2c1NC(=O)N3c1ccc(Oc2ccccc2)cc1C [Example 55, N-((1S,2S)-2-Acetamidocyclohexyl)-5-(2-methyl-4-phenoxyphenyl)-4-oxo-4,5-dihydro-3H-1-thia-3,5,8-triazaacenaphthylene-2-carboxamide]",5.88
6,"CC(=O)N[C@@H]1CCC[C@@H]1NC(=O)c1sc2nccc3c2c1NC(=O)N3c1ccc(Oc2ccccc2)cc1C [Example 57, N-((1S,2R)-2-Acetamidocyclopentyl)-5-(2-methyl-4-phenoxyphenyl)-4-oxo-4,5-dihydro-3H-1-thia-3,5,8-triazaacenaphthylene-2-carboxamide]",5.65
7,"Cc1cc(Oc2ccccc2)ccc1N1C(=O)Nc2c(C(=O)N[C@H]3CCCC[C@@H]3N)sc3nccc1c23 [Example 58, N-((1S,2S)-2-Aminocyclohexyl)-5-(2-methyl-4-phenoxyphenyl)-4-oxo-4,5-dihydro-3H-1-thia-3,5,8-triazaacenaphthylene-2-carboxamide]",5.51
8,"CCC(=O)N[C@@H]1CCC[C@@H]1NC(=O)c1sc2nccc3c2c1NC(=O)N3c1ccc(Oc2ccccc2)cc1C [Example 59, 5-(2-Methyl-4-phenoxyphenyl)-4-oxo-N-((1S,2R)-2-propionamidocyclopentyl)-4,5-dihydro-3H-1-thia-3,5,8-triazaacenaphthylene-2-carboxamide]",5.46
9,"CCC(=O)N[C@H]1CCCC[C@@H]1NC(=O)c1sc2nccc3c2c1NC(=O)N3c1ccc(Oc2ccccc2)cc1C [Example 60, 5-(2-Methyl-4-phenoxyphenyl)-4-oxo-N-((1S,2S)-2-propionamidocyclohexyl)-4,5-dihydro-3H-1-thia-3,5,8-triazaacenaphthylene-2-carboxamide]",5.40
10,"Cc1cc(Oc2ccccc2)ccc1N1C(=O)Nc2c(C(=O)N[C@H]3CCCC[C@@H]3N(C)C)sc3nccc1c23 [Example 62, N-((1S,2S)-2-(Dimethylamino)cyclohexyl)-5-(2-methyl-4-phenoxyphenyl)-4-oxo-4,5-dihydro-3H-1-thia-3,5,8-triazaacenaphthylene-2-carboxamide]",5.29
11,"CNC1CCC(NC(=O)c2sc3nccc4c3c2NC(=O)N4c2ccc(Oc3ccccc3)cc2C)CC1 (centres unmarked) [Example 63, 5-(2-Methyl-4-phenoxyphenyl)-N-(4-(methylamino)cyclohexyl)-4-oxo-4,5-dihydro-3H-1-thia-3,5,8-triazaacenaphthylene-2-carboxamide]",6.85
12,"CC(=O)N[C@H]1CC[C@@H](NC(=O)c2sc3nccc4c3c2NC(=O)N4c2ccc(Oc3ccccc3)cc2C)CC1 [Example 64, N-((1S,4S)-4-Acetamidocyclohexyl)-5-(2-methyl-4-phenoxyphenyl)-4-oxo-4,5-dihydro-3H-1-thia-3,5,8-triazaacenaphthylene-2-carboxamide]",7.28
13,"CCC(=O)N[C@H]1CC[C@@H](NC(=O)c2sc3nccc4c3c2NC(=O)N4c2ccc(Oc3ccccc3)cc2C)CC1 [Example 65, 5-(2-Methyl-4-phenoxyphenyl)-4-oxo-N-((1S,4S)-4-propionamidocyclohexyl)-4,5-dihydro-3H-1-thia-3,5,8-triazaacenaphthylene-2-carboxamide]",7.20
14,"Cc1cc(Oc2ccccc2)ccc1N1C(=O)Nc2c(C(=O)N[C@H]3CC[C@@H](N(C)C)CC3)sc3nccc1c23 [Example 66, N-((1S,4S)-4-(Dimethylamino)cyclohexyl)-5-(2-methyl-4-phenoxyphenyl)-4-oxo-4,5-dihydro-3H-1-thia-3,5,8-triazaacenaphthylene-2-carboxamide]",6.56
15,"C=CC(=O)N[C@@H]1CC[C@H](NC(=O)c2sc3nccc4c3c2NC(=O)N4c2ccc(Oc3ccccc3)cc2C)C1 [Example 68, N-((1S,3R)-3-acrylamidocyclopentyl)-5-(2-methyl-4-phenoxyphenyl)-4-oxo-4,5-dihydro-3H-1-thia-3,5,8-triazaacenaphthylene-2-carboxamide]",7.78
16,"CCC(=O)N[C@@H]1CC[C@H](NC(=O)c2sc3nccc4c3c2NC(=O)N4c2ccc(Oc3ccccc3)cc2C)C1 [Example 69, 5-(2-Methyl-4-phenoxyphenyl)-4-oxo-N-((1S,3R)-3-propionamidocyclopentyl)-4,5-dihydro-3H-1-thia-3,5,8-triazaacenaphthylene-2-carboxamide]",7.73
17,"CC(=O)N[C@@H]1CC[C@H](NC(=O)c2sc3nccc4c3c2NC(=O)N4c2ccc(Oc3ccccc3)cc2C)C1 [Example 70, N-((1S,3R)-3-Acetamidocyclopentyl)-5-(2-methyl-4-phenoxyphenyl)-4-oxo-4,5-dihydro-3H-1-thia-3,5,8-triazaacenaphthylene-2-carboxamide]",7.69
